Experimental data published in patent US11389424B2, “Methods and compositions for treating chemotherapy-induced diarrhea” (NAPO PHARMACEUTICALS, INC., priority 2017, dated 2022).
Where two headings read alike, the source gives them in different places.

Legend:
[1] = tested on: recurrent, cutaneous mast cell tumors; settings: cited from earlier work
[2] = 9-month toxicity study (WIL-288022), oral (capsule) administration of enteric-coated crofelemer tablets; design: species or system beagle dogs; settings: dog, in vivo
Experimental: The dose for this study was based on data obtained from a pilot study that assessed the clinical effectiveness of crofelemer (SP-303) in alleviating clinical signs associated with secretory diarrhea in dogs (CANA-001) and the wide margin of safety established in 30-day (WIL-288006) and 9-month (WIL-288022) toxicity studies. Chronic safety of crofelemer in dogs was studied in a 9-month study during which tablets were administered in capsules once daily, 7 days per week, for 273 or 274 days to three groups of beagle dogs. Dosage levels were 50, 175 and 600 mg/kg/day, plus a concurrent control group. Based on the results of this study, the no-observed-adverse-effect level (NOAEL) for oral (capsule) administration of enteric-coated crofelemer tablets to dogs for 273 or 274 consecutive days was 50 mg/kg/day. […] Thus, the no effect level is estimated to be between 50 and 175 mg/kg/day.

Compound | objective response (primary effectiveness endpoint) ([1]; end of the six-week masked phase, vs placebo 8%, p<0.001) [%] | all grade diarrhea ([1]; masked phase) [%] | grade 3-4 diarrhea ([1]; masked phase) [%] | any grade diarrhea ([1]; masked plus open label phases) [%] | grade 3-4 diarrhea ([1]; masked plus open label phases) [%] | primary adverse effect at the higher dosages [2]
Cc1[nH]c(/C=C2\C(=O)Nc3ccc(F)cc32)c(C)c1C(=O)NCCN1CCCC1.O=P(O)(O)O [toceranib phosphate, Toceranib phosphate] | 37 | 46 | 7 | 59 | 8 | 
Crofelemer |  |  |  |  |  | gastrointestinal irritation
